Measurements reported in publication PMC9841525, “Chemical Blockage of the Mitochondrial Rhomboid Protease PARL by Novel Ketoamide Inhibitors Reveals Its Role in PINK1/Parkin-Dependent Mitophagy” (Journal of Medicinal Chemistry, 2022).
*1 amine or outer side, *2 acyl side, *3 side chain or, on linkers, in order; H or OH if unused. Where a SMILES comes first, the peptide text is derived from it. [ ]: non-standard residue; d: D form. The star is where a group is joined. NH(4-phenylbutyl) = c1ccc(CCCCN*)cc1; X1 = C[C@H](N[*:1])C(=O)C(=O)[*:2]

Tested on: PINK1
Test: PINK1 processing and stabilization, endogenous PINK1, sodium carbonate fractionation and immunoblot
Format: cell-based, human
Settings: HEK293T cells, 5 μM, 8 h
Protocol: Inducible stable Flp-In HEK293 T-REx cells expressing PINK1 were described previously.[33] HEK293 T-REx PINK1 and HEK293T cells were grown in DMEM (Gibco) supplemented with 10% (v/v) fetal bovine serum (ThermoFisher), 1% (v/v) GlutaMAX (Gibco), 1% (v/v) sodium pyruvate (Gibco), 125 μg/mL hygromycin (Invitrogen), and 10 μg/mL blasticidin (Gibco) or DMEM supplemented with 10% (v/v) fetal bovine serum, respectively, at 37 °C in 5% (v/v) CO2. For microscopy, cells were seeded on poly-L-lysine (Sigma)-coated slides. Transient plasmid transfections were performed using 25 kDa linear polyethylenimine (Polysciences). Plasmid (100 ng) encoding HA-Parkin-IRES-GFP, mito-mCherry or Parkin-mEGFP, or 500 ng plasmid encoding PGAM5-FLAG were used per 6-well. Total transfected DNA was 2 μg/well. For siRNA transfection, 2 × 10^5 cells were seeded per 6-well and on the next day transfected with 20 nM siRNA-oligonucleotide using lipofectamine RNAiMAX (ThermoFisher). Cells were analyzed 27 h post-transfection or five days post-siRNA-transfection. HEK293 T-REx PINK1 cells were induced with 0.3 μg/mL doxycycline for 24 h before further processing. […] For quantification, ImageJ was used (http://rsb.info.nih.gov/ij/). Immunoblots shown are representative of at least three independent experiments and were evaluated using Excel and GraphPad Prism 9 (GraphPad Software, Inc.).

With `CC(=O)N[C@@H](C)C(=O)N[C@H](C(=O)N[C@@H](Cc1ccccc1)C(=O)N[C@@H](CC(C)C)C(=O)N[C@@H](C)C(=O)C(=O)NCCCCc1ccccc1)C(C)C` [compound 5] (Ac-AVFL[X1]-{NH(4-phenylbutyl)}) the “Effect on endogenous PINK1 cleavage and stabilization” value was “endogenous PINK1 remains largely uncleaved and is stabilized in its 66 kDa form” and the “Effect on endogenous PINK1 cleavage and stabilization” value (listed as Compound 5) was “inhibits PARL-catalyzed PINK1 cleavage under endogenous expression levels”.
